# In patent US20200345733A1, “Microbicidal Pyrimidine or Triazine Containing Compounds” (Janssen Sciences Ireland UC, priority 2002, published 2020):
# Key:
# [1] = target: HIV-1 reverse transcriptase (Human immunodeficiency virus type 1 group M subtype B, UniProt P04585); test: Cell-free HIV-1 reverse transcriptase inhibition; type: biochemical; details: inhibits HIV-1 reverse transcriptase activity by 50%, cell-free assay
# Protocol: Next to antiviral activity in CEM T cells, inhibition of HIV-1 reverse transriptase activity was measured in a cell-free assay, in which the 50% inhibitory concentration (IC50) of said compound is indicated (FIG. 1). The CEM system, using a lab T cell-line and the SI/X4labstrain HTLV-IIIb, was not directly relevant to sexual transmission, where primary T cells, dendritic cells and NSI/R5 viruses are involved. Therefore, we focussed on prevention of NSI/R5 HIV infection in MO-DC/CD4(+) T cell co-cultures.
# [2] = test system: T-lymphocyte proliferation; test: Immune suppressive activity in mixed leukocyte cultures (MO-DC stimulators, allogenic CD4(+) T cells); type: cell-based
# Protocol: The immune suppressive activity of compound B was measured in mixed leukocyte cultures (MLC), with MO-DC as stimulators and allogenic CD4(+) T cells as responders. Cultures of 3×10^3 MO-DC and 100×10^3 T cells were set-up in 6-fold in a 96-well plate, in the presence or absence of a dilution series of compound B. In a first part of experiments, compound B was removed after 24 hours by washing and cells were cultured for an additional 4 days. In a second part of experiments, compound B remained present during the 5-day culture period. In both set-ups, 1 μCi of [methyl-^3H] thymidine (TRA. 120 from Amersham Pharmacia, Buckinghamshire, U.K.) was added to each well at the fifth day of culture. Plates were harvested 7 hours later and [methyl-^3H] thymidine incorporation was measured in a scintillation counter (Top Count™, Canberra-Packard, Zellik, Belgium) and expressed as counts per minute (CPM). The
# (§1) Immune Suppressive Concentration (ISC50) is defined as the drug concentration inhibiting 50% of the lymphocyte proliferation. Cellular toxicity was evaluated microscopically by […] staining of co-cultures of MO-DC and allogeneic CD4(+) T cells , cultured for 5 days in the presence of a dilution series of drug. Part of the harvested cells was also used for flowcytometric analysis of lymphocyte blast formation and apopoptosis, based on forward and side scatter.
# [3] = test system: T cells; type: cell-based; details: human, 5 days
# Protocol: as §1
# Additional experiments were done to evaluate if inhibition of DNA synthesis corresponded to increased mortality of T cells or only to decreased blast formation.
# [4] = test system: primary HIV strains (X4, CCR5 and X41R5); test: Efficacy against primary HIV strains in relevant cell lines; type: cell-based
# [5] = test system: cervical epithelial cells (MEI180); test: MTT viability of cervical epithelial cells; type: cell-based; details: exposure 1 hr, 24 hrs or 5 days
# [6] = target: HIV-1 reverse transcriptase (HIV-1 RT) (Human immunodeficiency virus type 1 group M subtype B, UniProt P04585); test: Steady state kinetics of RNA-dependent DNA polymerization by HIV-1 RT; type: biochemical
# Protocol: In a first experiment, the reaction velocity was determined in the presence of different concentrations of compound B and different concentrations of dGTP while the concentration of the p(rC)p(dG) complex was constant.
# In a second experimental the reaction velocity was determined in the presence of different concentrations of compound B and different concentrations of p(rC)p(dG) while the concentration of the substrate was constant.
smiles,measurement,setting,value
"Cc1cc(C)c(Nc2ccnc(Nc3ccc(C#N)cc3)n2)c(C)c1 [compound B, 4-[[4-[(2,4,6-trimethylphenyl)amino]-2-pyrimidinyl]amino]benzonitrile]",IC50,[1],24 nM
same,ISC50 (50% Immune Suppressive Concentration),[2]; drug present continuously during 5-day culture,"about 1,500 nM"
same,ISC50 (50% Immune Suppressive Concentration),"[2]; drug present continuously during 5-day culture, listed as Comp. B","1,515 nM"
same,ISC50 (50% Immune Suppressive Concentration),[2]; drug present during first 24 hours only,"~25,000 nM"
same,ISC50 (50% Immune Suppressive Concentration),"[2]; drug present during first 24 hours only, listed as Comp. B","24,886 nM"
same,50% death rate of T cells,[3],"54,222 nM"
same,Fifty percent inhibition of blast formation,[3],"3,916 nM"
same,Efficacy against primary HIV strains,[4],good efficacy
same,"Toxicity (viability, MTT assay)",[5]; 100 nM,some reduction of viability
same,"Toxicity (viability, MTT assay)",[5]; 50 μM,no toxicity
same,Nature of binding to HIV-1 RT,[6]; against dGTP,non-competitive
same,Ki,"[6]; against dGTP, p(rC)p(dG) constant",33 nM
same,Nature of binding to HIV-1 RT,[6]; against p(rC)p(dG),non-competitive
same,Ki,"[6]; against p(rC)p(dG), substrate constant",28 nM
same,Km,"[6]; dGTP varied, p(rC)p(dG) constant (Km of the substrate)",2.51 µM
same,Km,"[6]; p(rC)p(dG) varied, substrate constant (Km of primer/template)",10.3 µM
